Test results reported in patent publication US20090004185A1, “AMINO-SUBSTITUTED QUINAZOLINE DERIVATIVES AS INHIBITORS OF BETA-CATENIN/TCF-4 PATHWAY AND CANCER TREATMENT AGENTS” (WYETH, priority 2007, published 2009).

Legend:
β-catenin/Tcf-4 = assay: cells; format: cell-based; details: Homo sapiens, 24 hours of incubation with compound, ratio Firefly/Renilla luciferase
Summary of the method: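 SW480-derived lines with integrated reporters (Tcf-4-driven firefly luciferase; SV40 firefly as specificity control; SV40 Renilla for cell number/toxicity), treated 24 hours with titrated compounds, final 0.316% DMSO. Dual-luciferase read-out; firefly/Renilla ratio as % of control, duplicate plates, IC50 (nM) from curve fit.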

SV40-Luc = SV40-Luc control luciferase reporter assay, SV 5A8 cell line (SV40-Luc and SV40-R-Luc), control for non-specific inhibitors; format: cell-based, human; details: Homo sapiens, SV5A8, 24 h, SV 5A8 cells derived from SW480; 24 hours of incubation with compound; ratio Firefly/Renilla luciferase
Summary of the method: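 SW480-derived lines with integrated reporters: SV 5A8 (SV40-Luc + SV40-R-Luc), Tcf 33.13 and Tcf 22C11 (Tcf-4-Luc + SV40-R-Luc). Compounds titrated onto cells for 24 h, final DMSO 0.316%. Firefly and Renilla luminescence read by dual-luciferase; firefly/Renilla ratio as % of control fitted for IC50.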

[1] = SW480, 24 h, Tcf 33.13 cells derived from SW480
[2] = Tcf22C11, 24 h, Tcf 22C11 cells derived from SW480

Structure (SMILES) | melting point [°C] | IC50 (β-catenin/Tcf-4; [1]) [nM] | IC50 (β-catenin/Tcf-4; [2]) [nM] | IC50 (SV40-Luc) [nM]
Cc1ccc2c(NCc3ccc(NC(=O)c4ccc(F)cc4)cc3)nc(NC3CCN(Cc4ccccc4)CC3)nc2c1 [Example 233, N-{4-[({2-[(1-benzylpiperidin-4-yl)amino]-7-methylquinazolin-4-yl}amino)methyl]phenyl}-4-fluorobenzamide] | 135 to 138 | > 2180 | > 4350 | > 4350
CNc1nc(NCc2ccc(NC(=O)C3CCN(Cc4ccccc4)CC3)cc2)c2ccc(C)cc2n1 [Example 130, 1-benzyl-N-[4-({[7-methyl-2-(methylamino)quinazolin-4-yl]amino}methyl)phenyl]piperidine-4-carboxamide] | 128 | 699 | 798 | > 2350
Cc1ccc2c(NCc3ccc(NC(=O)C4CCN(Cc5ccccc5)CC4)cc3)nc(N3CCCCCC3)nc2c1 [Example 131, N-(4-{[(2-azepan-1-yl-7-methylquinazolin-4-yl)amino]methyl}phenyl)-1-benzylpiperidine-4-carboxamide] | 66 | 966 | 1040 | > 7870
CNc1nc(NCc2ccc(NC(=O)c3ccc(Br)cc3)cc2)c2ccc(C)cc2n1 [Example 238, 4-bromo-N-[4-({[7-methyl-2-(methylamino)quinazolin-4-yl]amino}methyl)phenyl]benzamide] | 295 to 298 | 255 | 284 | > 1310
CNc1nc(NCc2ccc(NC(=O)c3ccc(C)nc3)cc2)c2ccc(C)cc2n1 [Example 240, 6-methyl-N-[4-({[7-methyl-2-(methylamino)quinazolin-4-yl]amino}methyl)phenyl]nicotinamide] | 257 to 259 | 793 | 900 | > 3030
CNc1nc(NCc2ccc(NC(=O)c3ccc(Cl)cc3)cc2)c2cc(Br)cc(C)c2n1 [Example 66, N-[4-({[6-bromo-8-methyl-2-(methylamino)quinazolin-4-yl]amino}methyl)phenyl]-4-chlorobenzamide] | 139 | 649 | 1010 | > 9790
Cc1ccc2c(NCc3ccc(NC(=O)C4CCN(Cc5ccc(C(F)(F)F)cc5)CC4)cc3)nc(N(C)C)nc2c1 [Example 256, N-[4-({[2-(dimethylamino)-7-methylquinazolin-4-yl]amino}methyl)phenyl]-1-[4-(trifluoromethyl)benzyl]piperidine-4-carboxamide] | 126 to 128 | 706 | 967 | > 8670
Cc1ccc2c(NCc3ccc(NC(=O)C4CCN(Cc5ccc(F)c(F)c5)CC4)cc3)nc(N(C)C)nc2c1 [Example 255, 1-(3,4-difluorobenzyl)-N-[4-({[2-(dimethylamino)-7-methylquinazolin-4-yl]amino}methyl)phenyl]piperidine-4-carboxamide] | 97 to 99 | 106 | 196 | > 2300
Cc1ccc2c(NCc3ccc(NC(=O)c4ccc(Cl)cc4)cc3)nc(N3CCCCCC3)nc2c1 [Example 198, N-(4-{[(2-azepan-1-yl-7-methylquinazolin-4-yl)amino]methyl}phenyl)-4-chlorobenzamide] | 192 to 194 | 253 | 346 | > 2500
C=Cc1ccc2c(NCc3ccc(NC(=O)C4CCN(Cc5ccccc5)CC4)cc3)nc(N(C)C)nc2c1 [Example 150, 1-benzyl-N-[4-({[2-(dimethylamino)-7-vinylquinazolin-4-yl]amino}methyl)phenyl]piperidine-4-carboxamide] | 180 | 169 | 268 | > 2400
Cc1ccc2c(NCc3ccc(NC(=O)c4ccc(F)cc4)cc3)nc(NCCc3ccccn3)nc2c1 [Example 232, 4-fluoro-N-{4-[({7-methyl-2-[(2-pyridin-2-ylethyl)amino]quinazolin-4-yl}amino)methyl]phenyl}benzamide] | 112 to 115 | 292 | 408 | > 2470
O=C(Nc1ccc(CNc2nc(NC3CC3)nc3ccccc23)cc1)c1ccc(F)cc1 [Example 121, N-[4-({[2-(cyclopropylamino)quinazolin-4-yl]amino}methyl)phenyl]-4-fluorobenzamide] | 189 | 1140 | 1720 | > 2920
